One block for each compound: values may come before it. Numbered stars: 1 amine (or outer) side, 2 acyl side, 3 side chain; on linkers, the order of the positions; unused ones are H or OH. Square brackets hold non-standard residues; d marks the D form. Side chains are listed from the residue outwards. Peptide text beside a SMILES is read from it. * marks the point of attachment. Biotin = O=C1N[C@H]2[C@H](CS[C@H]2CCCCC(=O)*)N1; γGlu = O=C(O)[C@H](CCC(=O)[*:2])N[*:1]; Palmitoyl = CCCCCCCCCCCCCCCC(=O)*; PhLac = O=C(O)[C@@H](O)Cc1ccccc1; PEG4 = NCCOCCOCCOCCOCCC(=O)O
Legend:
[1] = target: GLP-1R S445A (Homo sapiens, UniProt P43220, S445A); assay: cell-based; settings: read-out: cAMP Emax Mean
Sequence of GLP-1R S445A (P43220 24-463 S445A): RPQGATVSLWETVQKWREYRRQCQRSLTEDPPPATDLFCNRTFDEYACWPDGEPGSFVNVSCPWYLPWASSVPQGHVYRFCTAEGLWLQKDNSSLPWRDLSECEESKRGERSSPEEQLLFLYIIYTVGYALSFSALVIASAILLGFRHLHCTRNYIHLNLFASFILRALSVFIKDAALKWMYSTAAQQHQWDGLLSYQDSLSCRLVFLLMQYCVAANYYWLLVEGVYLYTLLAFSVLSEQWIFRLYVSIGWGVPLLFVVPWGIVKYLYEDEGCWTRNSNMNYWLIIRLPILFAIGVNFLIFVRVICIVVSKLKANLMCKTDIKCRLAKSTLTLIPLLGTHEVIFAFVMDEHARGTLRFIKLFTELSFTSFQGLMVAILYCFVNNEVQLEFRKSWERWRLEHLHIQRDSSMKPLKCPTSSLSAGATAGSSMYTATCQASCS
Method: (§1) Transfection for pharmacology experiments was conducted as previously described using FuGENE 6 (Promega, #E2691). […] Subsequently, 240 μL of room-temperature FuGENE 6 (Promega, #E2691) was added to the medium, mixed by inversion, and allowed to rest at room temperature for 5 min. 40 μg of the plasmid of interest was added to the FuGENE 6 containing medium, mixed by inversion, and allowed to rest at room temperature for 15–20 min.
(§2) HEK Freestyle cells (ThermoFisher Scientific, #R79007) seeded in suspension at a density of 250,000 cells/mL were transiently transfected with indicated receptor constructs using Fugene-6 reagent (Promega, #E2691). […] Cells were then lysed via sequential addition of d2-labeled cAMP competitor conjugate and cryptate-conjugated detection antibody (Revity, #62AM4PEC), then incubated for 1 h at room temperature with subsequent quantification of time-resolved fluorescence resonance energy transfer using an Envision plate reader and calibration to external synthetic cAMP standards in a parallel processed plate.

[2] = target: GLP-1R WT (Homo sapiens, UniProt P43220); assay: cell-based; settings: read-out: cAMP Emax Mean
Sequence of GLP-1R WT (P43220 24-463): as the sequence (P43220 24-463 S445A) above, with A422S counted along it
Method: as §1, §2

[3] = target: GLP-1R_TEV_FLAG C-tail (Homo sapiens, UniProt P43220); settings: WT GLP-1R_TEV C-tail; 1 μM ligand, 10 min 37 °C, FreeStyle 293 cells, LC-PRM, relative to DMSO
Sequence of GLP-1R_TEV_FLAG C-tail (P43220 24-431 limits assumed): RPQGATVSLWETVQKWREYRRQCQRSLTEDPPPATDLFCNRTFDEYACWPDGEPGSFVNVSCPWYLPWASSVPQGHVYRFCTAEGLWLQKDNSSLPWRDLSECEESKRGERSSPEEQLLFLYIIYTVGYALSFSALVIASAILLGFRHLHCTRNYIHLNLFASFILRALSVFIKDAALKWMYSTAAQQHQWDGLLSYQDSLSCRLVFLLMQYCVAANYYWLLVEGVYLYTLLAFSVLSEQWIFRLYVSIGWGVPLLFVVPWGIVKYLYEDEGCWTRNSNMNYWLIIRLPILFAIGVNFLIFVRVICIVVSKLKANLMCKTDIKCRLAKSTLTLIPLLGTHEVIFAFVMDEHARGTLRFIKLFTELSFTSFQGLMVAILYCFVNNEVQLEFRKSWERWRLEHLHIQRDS

[4] = target: GLP-1R S442A (Homo sapiens, UniProt P43220, S442A); assay: cell-based; settings: read-out: cAMP Emax Mean
Sequence of GLP-1R S442A (P43220 24-463 S442A): as the sequence (P43220 24-463 S445A) above, with S419A, A422S counted along it

[5] = target: GLP-1R S444A (Homo sapiens, UniProt P43220, S444A); assay: cell-based; settings: read-out: cAMP Emax Mean
Sequence of GLP-1R S444A (P43220 24-463 S444A): as the sequence (P43220 24-463 S445A) above, with S421A, A422S counted along it

[6] = target: GLP-1R 3S→A (S442A/S444A/S445A) (Homo sapiens, UniProt P43220, S442A/S444A/S445A); assay: cell-based; settings: read-out: cAMP Emax Mean
Sequence of GLP-1R 3S→A (S442A/S444A/S445A) (P43220 24-463 S442A/S444A/S445A): as the sequence (P43220 24-463 S445A) above, with S419A, S421A counted along it

[7] = target: T1, GCGR (Homo sapiens, UniProt P47871); assay: GCGR cAMP accumulation, antagonist mode, native and biotinylated peptides; type: cell-based; settings: HTRF, HEK Freestyle cells, arithmetic mean, n=3
T1 sequence (P47871 26-477): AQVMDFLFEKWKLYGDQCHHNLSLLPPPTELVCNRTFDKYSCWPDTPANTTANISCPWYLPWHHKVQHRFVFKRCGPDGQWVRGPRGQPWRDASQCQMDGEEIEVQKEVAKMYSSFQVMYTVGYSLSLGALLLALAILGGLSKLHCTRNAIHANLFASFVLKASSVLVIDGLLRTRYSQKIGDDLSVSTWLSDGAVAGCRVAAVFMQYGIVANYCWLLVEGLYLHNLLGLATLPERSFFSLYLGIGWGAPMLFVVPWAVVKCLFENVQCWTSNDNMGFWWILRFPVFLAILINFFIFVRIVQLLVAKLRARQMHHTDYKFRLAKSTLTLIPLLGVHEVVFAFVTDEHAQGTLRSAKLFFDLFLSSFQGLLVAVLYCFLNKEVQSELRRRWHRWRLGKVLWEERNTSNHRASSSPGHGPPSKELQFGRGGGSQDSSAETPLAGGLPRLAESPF
Method: HEK Freestyle cells (ThermoFisher Scientific, #R79007) seeded in suspension at a density of 250,000 cells/mL were transiently transfected with indicated receptor constructs using Fugene-6 reagent (Promega, #E2691). After 48 h, cells were pelleted and resuspended in assay buffer (DMEM, #Gibco 31053) containing 0.1% casein. Cells were then added at 1000 cells/well to 384-well white microplates (Costar, #3570) containing a range of agonist concentrations prepared via acoustic direct dilution in assay buffer containing 250 μM IBMX (total reaction volume of 20 μL), followed by incubation at 37 °C for 30 min. Cells were then lysed via sequential addition of d2-labeled cAMP competitor conjugate and cryptate-conjugated detection antibody (Revity, #62AM4PEC), then incubated for 1 h at room temperature with subsequent quantification of time-resolved fluorescence resonance energy transfer using an Envision plate reader and calibration to external synthetic cAMP standards in a parallel processed plate. Normalized percent values were fit to the 4-parameter logistic model using GraphPad Prism 10.1.2.
Figure S1. Enrichment of GCGR using biotinylated peptide ligands and bottom-up proteomic analysis of C-tail phosphorylation. A-B) GCGR cAMP accumulation was measured in (A) agonist mode and (B) antagonist mode using native and biotinylated peptides. Summary statistics for pharmacological […]

[8] = target: T1, GCGR; assay: GCGR cAMP accumulation, agonist mode, native and biotinylated peptides; type: cell-based; settings: read-out: cAMP Emax Mean

- Emax [1]: 123%
- Emax [2]: 99%
- increase in the percentage of phosphorylated GLP-1R proteoforms [3]: 14.5%
- Emax [4]: 116%
- Emax [5]: 127%
- Emax [6]: 130%
SMILES: N#Cc1ccc(COc2cccc(C3CCN(Cc4nc5ccc(C(=O)O)cc5n4C[C@@H]4CCO4)CC3)n2)c(F)c1 [danuglipron]

- Emax [7]: 120%
SMILES: CSCC[C@H](NC(=O)[C@H](CC(C)C)NC(=O)[C@H](Cc1c[nH]c2ccccc12)NC(=O)[C@H](CCC(N)=O)NC(=O)[C@@H](NC(=O)[C@H](Cc1ccccc1)NC(=O)[C@H](CC(=O)O)NC(=O)[C@H](CCC(N)=O)NC(=O)[C@H](C)NC(=O)[C@H](CCCNC(=N)N)NC(=O)[C@H](CCCNC(=N)N)NC(=O)[C@H](CO)NC(=O)[C@H](CC(=O)O)NC(=O)[C@H](CC(C)C)NC(=O)[C@H](Cc1ccc(O)cc1)NC(=O)[C@H](CCCCN)NC(=O)[C@H](CO)NC(=O)[C@H](CCCCNC(=O)CCOCCOCCOCCOCCNC(=O)CCCC[C@@H]1SC[C@@H]2NC(=O)N[C@@H]21)NC(=O)[C@H](CC(=O)O)NC(=O)[C@H](CO)NC(=O)[C@@H](NC(=O)[C@@H](O)Cc1ccccc1)[C@@H](C)O)C(C)C)C(=O)N[C@@H](CC(=O)O)C(=O)N[C@H](C(N)=O)[C@@H](C)O [Biotin-GCGR antagonist] (H-[PhLac]TSDK([PEG4-Biotin])SKYLDSRRAQDFVQWLMDT-NH2)

SMILES: CC[C@H](C)[C@H](NC(=O)[C@H](Cc1ccccc1)NC(=O)[C@@H](NC(=O)CNC(=O)[C@H](CCC(N)=O)NC(=O)C(C)(C)NC(=O)[C@@H](N)Cc1c[nH]cn1)[C@@H](C)O)C(=O)N[C@@H](CO)C(=O)N[C@@H](CC(=O)O)C(=O)N[C@@H](CCCCNC(=O)CCOCCOCCOCCOCCNC(=O)CCCC[C@@H]1SC[C@@H]2NC(=O)N[C@@H]21)C(=O)N[C@@H](CO)C(=O)N[C@@H](CCCCN)C(=O)N[C@@H](Cc1ccc(O)cc1)C(=O)N[C@@H](CC(C)C)C(=O)N[C@@H](CC(=O)O)C(=O)NC(C)(C)C(=O)N[C@@H](CCCNC(=N)N)C(=O)N[C@@H](C)C(=O)N[C@@H](C)C(=O)N[C@@H](CCC(N)=O)C(=O)N[C@@H](CC(=O)O)C(=O)N[C@@H](Cc1ccccc1)C(=O)N[C@H](C(=O)N[C@@H](CCC(N)=O)C(=O)N[C@@H](Cc1c[nH]c2ccccc12)C(=O)N[C@@H](CC(C)C)C(=O)N[C@@H](CCSC)C(=O)N[C@@H](CC(=O)O)C(=O)N[C@H](C(=O)O)[C@@H](C)O)C(C)C [Biotin-GCG]
- Emax [8]: 124%

- Emax [7]: 116%
SMILES: CCCCCCCCCCCCCCCC(=O)N[C@@H](CCC(=O)N[C@@H](CCC(=O)NCCCC[C@H](NC(=O)[C@H](CC(=O)O)NC(=O)[C@H](CO)NC(=O)[C@@H](NC(=O)[C@@H](O)Cc1ccccc1)[C@@H](C)O)C(=O)N[C@@H](CO)C(=O)N[C@@H](CCCCN)C(=O)N[C@@H](Cc1ccc(O)cc1)C(=O)N[C@@H](CC(C)C)C(=O)N[C@@H](CC(=O)O)C(=O)N[C@@H](CO)C(=O)N[C@@H](CCCNC(=N)N)C(=O)N[C@@H](CCCNC(=N)N)C(=O)N[C@@H](C)C(=O)N[C@@H](CCC(N)=O)C(=O)N[C@@H](CC(=O)O)C(=O)N[C@@H](Cc1ccccc1)C(=O)N[C@H](C(=O)N[C@@H](CCC(N)=O)C(=O)N[C@@H](Cc1c[nH]c2ccccc12)C(=O)N[C@@H](CC(C)C)C(=O)N[C@@H](CCSC)C(=O)N[C@@H](CC(=O)O)C(=O)N[C@H](C(N)=O)[C@@H](C)O)C(C)C)C(=O)O)C(=O)O [GCGR Antagonist] (H-[PhLac]TSDK([γGlu-γGlu-Palmitoyl])SKYLDSRRAQDFVQWLMDT-NH2)
